Five cell lines from the supplement of paper PMC10307832 can be followed below.

What all share (test): relative viability (nuclei count vs DMSO), 5 days (fraction); higher = more cells survive
Compound in the test “QS11 + Phenformin”: C1CC2=C(C1)C=C(C=C2)OC3=NC(=C4C(=N3)N(C=N4)CC5=CC=C(C=C5)C6=CC=CC=C6)N[C@@H](CC7=CC=CC=C7)CO [QS11] + N=C(N)NC(=N)NCCc1ccccc1 [Phenformin] (partner 250 µM)
In outline: (§1)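 Lung cancer cell lines, seeded in 1536-well plates, were treated the following day by pin tool with a single drug or with five library-drug doses (not always all listed) in √10 steps on top of a fixed anchor-drug dose. Cells were fixed and nuclei stained in one step after 5 days, and nuclei were counted. Relative viability is the nuclei count for treated wells divided by that for vehicle wells, reported as medians of duplicate plates.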

Compound in the test “AZ628 + Luminespib”: CC1=C(C=C(C=C1)NC(=O)C2=CC(=CC=C2)C(C)(C)C#N)NC3=CC4=C(C=C3)N=CN(C4=O)C [AZ628] + CCNC(=O)c1noc(-c2cc(C(C)C)c(O)cc2O)c1-c1ccc(CN2CCOCC2)cc1 [Luminespib] (partner 0.01 µM)
In outline: as §1

Compound in the test “AZ628 + Crizotinib”: CC1=C(C=C(C=C1)NC(=O)C2=CC(=CC=C2)C(C)(C)C#N)NC3=CC4=C(C=C3)N=CN(C4=O)C [AZ628] + C[C@@H](Oc1cc(-c2cnn(C3CCNCC3)c2)cnc1N)c1c(Cl)ccc(F)c1Cl [Crizotinib] (partner 1 µM)
In short, it runs like this:
as §1

Compound in the test “Darinaparsin + Lapatinib”: C[As](C)SC[C@H](NC(=O)CC[C@H](N)C(=O)O)C(=O)NCC(=O)O [Darinaparsin] + CS(=O)(=O)CCNCc1ccc(-c2ccc3ncnc(Nc4ccc(OCc5cccc(F)c5)c(Cl)c4)c3c2)o1 [Lapatinib] (partner 2 µM)
In short, it runs like this: as §1

As for NCI-H727, the relative viability was determined as 0.88 with QS11 + Phenformin (first compound 0.08 µM); 0.442 in the test with QS11 + Phenformin (first compound 0.253 µM); 0.459 in the test with QS11 + Phenformin (first compound 0.8 µM); 0.557 with QS11 + Phenformin (first compound 2.53 µM); 0.372 in the test with QS11 + Phenformin (first compound 8 µM); 0.343 in the test with AZ628 + Luminespib (first compound 0.08 µM). The relative viability in the test with AZ628 + Luminespib (first compound 0.253 µM) worked out at 0.337; with AZ628 + Luminespib (first compound 0.8 µM), 0.228; with AZ628 + Luminespib (first compound 2.53 µM), 0.277; in the test with AZ628 + Luminespib (first compound 8 µM), 0.203; in the test with AZ628 + Crizotinib (first compound 0.08 µM), 0.706; with AZ628 + Crizotinib (first compound 0.253 µM) it was 0.523. Further, the relative viability was 0.452 in the test with AZ628 + Crizotinib (first compound 0.8 µM); 0.368 with AZ628 + Crizotinib (first compound 2.53 µM); 0.258 with AZ628 + Crizotinib (first compound 8 µM); 0.872 in the test with Darinaparsin + Lapatinib (first compound 0.08 µM); 0.545 with Darinaparsin + Lapatinib (first compound 0.8 µM); 0.79 with Darinaparsin + Lapatinib (first compound 2.53 µM). Besides, in the test with Darinaparsin + Lapatinib (first compound 8 µM), the relative viability turned out to be 0.967.
Turning to NCI-H1915, the relative viability in the test with QS11 + Phenformin (first compound 0.08 µM) is 0.362; with QS11 + Phenformin (first compound 0.253 µM), 0.369; in the test with QS11 + Phenformin (first compound 2.53 µM), 0.376; with QS11 + Phenformin (first compound 8 µM), 0.348; with AZ628 + Luminespib (first compound 0.08 µM) it was 0.921; with AZ628 + Luminespib (first compound 0.253 µM), 0.816. The relative viability with AZ628 + Luminespib (first compound 0.8 µM) turned out to be 0.73; with AZ628 + Luminespib (first compound 2.53 µM), 0.6; with AZ628 + Luminespib (first compound 8 µM), 0.365; with AZ628 + Crizotinib (first compound 0.08 µM), 0.976; with AZ628 + Crizotinib (first compound 0.253 µM), 0.919; with AZ628 + Crizotinib (first compound 0.8 µM), 0.869. In addition, the relative viability in the test with AZ628 + Crizotinib (first compound 2.53 µM) was found to be 0.727; in the test with AZ628 + Crizotinib (first compound 8 µM), 0.495; in the test with Darinaparsin + Lapatinib (first compound 0.08 µM), 0.996; in the test with Darinaparsin + Lapatinib (first compound 0.8 µM) it was 0.888; with Darinaparsin + Lapatinib (first compound 2.53 µM), 0.932; with Darinaparsin + Lapatinib (first compound 8 µM) it was 1.18.
NCI-H2347: the relative viability in the test with QS11 + Phenformin (first compound 0.08 µM) came to 0.374; with QS11 + Phenformin (first compound 0.253 µM) it was 0.395; in the test with QS11 + Phenformin (first compound 0.8 µM), 0.362; with QS11 + Phenformin (first compound 2.53 µM), 0.364; in the test with QS11 + Phenformin (first compound 8 µM), 0.637; in the test with AZ628 + Luminespib (first compound 0.08 µM), 0.287. Also, the relative viability with AZ628 + Luminespib (first compound 0.253 µM) stood at 0.239; with AZ628 + Luminespib (first compound 0.8 µM) it was 0.301; with AZ628 + Luminespib (first compound 2.53 µM), 0.255; with AZ628 + Luminespib (first compound 8 µM), 0.218; with AZ628 + Crizotinib (first compound 0.08 µM) it was 0.689; in the test with AZ628 + Crizotinib (first compound 0.253 µM), 0.832. The relative viability with AZ628 + Crizotinib (first compound 0.8 µM) stood at 0.709; with AZ628 + Crizotinib (first compound 2.53 µM), 0.589; with AZ628 + Crizotinib (first compound 8 µM) it was 0.443; with Darinaparsin + Lapatinib (first compound 0.08 µM) it was 1.23; with Darinaparsin + Lapatinib (first compound 0.8 µM), 0.883; with Darinaparsin + Lapatinib (first compound 2.53 µM), 0.919. Moreover, the relative viability in the test with Darinaparsin + Lapatinib (first compound 8 µM) stood at 1.1.
Turning to NCI-H647, the relative viability with QS11 + Phenformin (first compound 0.08 µM) amounted to 0.372; with QS11 + Phenformin (first compound 0.253 µM) it was 0.57; with QS11 + Phenformin (first compound 0.8 µM), 0.514; in the test with QS11 + Phenformin (first compound 2.53 µM), 0.478; with QS11 + Phenformin (first compound 8 µM) it was 0.527; in the test with AZ628 + Luminespib (first compound 0.08 µM), 0.155. Moreover, the relative viability came to 0.132 in the test with AZ628 + Luminespib (first compound 0.253 µM); 0.221 in the test with AZ628 + Luminespib (first compound 0.8 µM); 0.186 with AZ628 + Luminespib (first compound 2.53 µM); 0.186 with AZ628 + Luminespib (first compound 8 µM); 1.24 with AZ628 + Crizotinib (first compound 0.08 µM); 1.03 with AZ628 + Crizotinib (first compound 0.253 µM). In addition, the relative viability in the test with AZ628 + Crizotinib (first compound 0.8 µM) is 1.04; with AZ628 + Crizotinib (first compound 2.53 µM), 0.984; in the test with AZ628 + Crizotinib (first compound 8 µM), 0.793; with Darinaparsin + Lapatinib (first compound 0.08 µM) it was 1.28; with Darinaparsin + Lapatinib (first compound 0.8 µM) it was 0.926; in the test with Darinaparsin + Lapatinib (first compound 2.53 µM), 0.833. In addition, in the test with Darinaparsin + Lapatinib (first compound 8 µM), the relative viability is 1.42.
For CAL-12T, the relative viability worked out at 0.571 with QS11 + Phenformin (first compound 0.08 µM); 0.572 with QS11 + Phenformin (first compound 0.253 µM); 0.552 with QS11 + Phenformin (first compound 0.8 µM); 0.594 with QS11 + Phenformin (first compound 2.53 µM); 0.561 with QS11 + Phenformin (first compound 8 µM); 0.591 in the test with AZ628 + Luminespib (first compound 0.08 µM). Further, the relative viability with AZ628 + Luminespib (first compound 0.253 µM) was determined as 0.371; with AZ628 + Luminespib (first compound 0.8 µM), 0.376; with AZ628 + Luminespib (first compound 2.53 µM) it was 0.465; in the test with AZ628 + Luminespib (first compound 8 µM) it was 0.466; in the test with AZ628 + Crizotinib (first compound 0.08 µM), 0.871; in the test with AZ628 + Crizotinib (first compound 0.8 µM), 0.565. Besides, the relative viability with AZ628 + Crizotinib (first compound 2.53 µM) worked out at 0.622; in the test with AZ628 + Crizotinib (first compound 8 µM), 0.361; in the test with Darinaparsin + Lapatinib (first compound 0.08 µM), 0.698; with Darinaparsin + Lapatinib (first compound 0.8 µM) it was 0.557; with Darinaparsin + Lapatinib (first compound 2.53 µM), 0.775; with Darinaparsin + Lapatinib (first compound 8 µM) it was 0.68.
